{"source": "patent US20100267680A1", "about": "“USE OF AT LEAST ONE OXIME DERIVATIVE OF CHOLEST-4-EN-3-ONE AS ANTIOXIDANTS” (priority 2007, published 2010)", "key": {"[1]": {"experiment": "Chemical stability of powder under ICH storage conditions, HPLC-UV total impurities", "type": "physicochemical", "conditions": "for total impurities: powder", "procedure": "These analyses were carried out using a high pressure liquid chromatography method coupled with a UV detector. This method makes it possible to quantify the impurities at a level of 0.05%."}, "[2]": {"experiment": "Competition with DMPO for tBuO radical, EPR quantification of DMPO-tBuO adduct", "conditions": "for % inhibition of the DMPO-tBuO radical: compound 20 mM equimolar to DMPO", "procedure": "The nitrones trap the radical species (R.; […]) and allow their observation by electron paramagnetic resonance (EPR) (Degray J. et al. Electron Spin Resonance, Ed N.M. Atherton, Atheaeum Press Ltd; Cambridge, 1994, 14, 246).\nThe incubation of the DMPO (Interchim-U2469) (20 mM) in deoxygenated toluene (Sigma-Aldrich) in the presence of the tBuO (tert-butoxyl) radical, generated by photolysis, makes it possible to identify and quantify by EPR the signal of the DMPO-tBuO radical. This signal is inhibited in the presence of an equimolar quantity of cholest-4-en-3-one oxime.\nThe EPR signal allows integration in the form of an area of the signal of the DMPO-tBuO adduct and therefore a relative quantification of this radical entity.\nAll the experiments were carried out on an X-band Bruker ESP300 device (9.5 GHz) at ambient temperature. The solutions were studied in a quartz EPR tube."}, "[3]": {"experiment": "Pharmacokinetics in the dog, oral and intra-venous, plasma assay by HPLC-MS", "type": "in vivo", "conditions": "500 mg/kg oral route, suspension in corn oil, vs intra-venous", "procedure": "A study of pharmacokinetics with administration by oral route in suspension in corn oil and by intra-venous route in solution in cremophor/ethanol/water (5%, 10%, 85%) made it possible to calculate the bioavailability of the product. The assay of the product in the plasma is carried out by a high pressure liquid chromatography method coupled with mass spectrometry."}, "[4]": {"experiment": "Oxidation of cumene to cumene hydroperoxide by oxygen with AIBN, HPLC-UV assay", "conditions": "for % of reduction of the oxidation of the cumene / Area of the signal, in relative units, of the cumene hydroperoxide: 2 equivalents of AIBN, 2 hours 45° C.", "procedure": "The oxidation of cumene at atmospheric pressure and at 37° C. by oxygen is known and described in the presence of a radical initiator such as AIBN (azobisisobutyronitrile) (Blanchard H. S., J. Am. Chem. Soc. 1959, 81, 4548). A recent publication used this reaction to classify the antioxidant potential of known products such as vitamin E (which is the universal reference), BHT (butylated hydroxytoluene) and other products.\nIn the following experiment we reproduced the same experimental conditions as those described in the publication of Becker D. A. et al. (J. Am. Chem. Soc. 2002, 124, 4678-4684). A high pressure liquid chromatography method coupled with a UV detector was used to detect cumene hydroperoxide. The column used is an Agilent Zorbax Eclipse XDB RPC8 column (150×4.6 mm) coupled with a UV detector fixed at 254 nm. The gradient used is detailed in the following table: […]\n2 ml of cumene (AcrosOrganic) and 0.5 ml of methanol are mixed, azobisisobutyronitrile (AcrosOrganic) is added (2 equivalents) and the solution taken to 45° C. in order to accelerate the chemical reaction. The cumene hydroperoxide appears over time and is assayed by the HPLC method.\nThe technique used made it possible to compare the appearance of the cumene hydroperoxide in the presence of an antioxidant agent such as the claimed products and vitamin E used as reference product."}, "[5]": {"test_system": "Beagles", "experiment": "General toxicity study, oral once daily for 39 weeks", "type": "in vivo", "conditions": "suspension in corn oil", "procedure": "A general toxicity study was carried out on Beagles receiving cholest-4-èn-3-one oxime in suspension in corn oil by oral administration once daily for 39 weeks. The detailed toxicological analysis of this study made it possible to describe a dose with a no-observed-effect level (NOEL) at 50 mg/kg."}}}
{"molecule": "CC(C)CCC[C@@H](C)[C@H]1CC[C@H]2[C@@H]3CCC4=CC(=NO)CC[C@]4(C)[C@H]3CC[C@]12C", "note": "[cholest-4-en-3-one oxime]", "values": [{"measurement": "change in the quality of the product", "setting": "[1]; after 2 year's storage at 25° C.", "result": "No change in the quality of the product"}, {"measurement": "change in the quality of the product", "setting": "[1]; after 6 months of storage at 40° C.", "result": "No change in the quality of the product"}, {"measurement": "total impurities", "setting": "[1]; 25° C. under 60% relative humidity, T0", "result": 1.8, "unit": "%"}, {"measurement": "total impurities", "setting": "[1]; 25° C. under 60% relative humidity, T24 months", "result": 1.8, "unit": "%"}, {"measurement": "total impurities", "setting": "[1]; 40° C. under 75% relative humidity, T0", "result": 2.1, "unit": "%"}, {"measurement": "total impurities", "setting": "[1]; 40° C. under 75% relative humidity, T6 months", "result": 1.9, "unit": "%"}, {"measurement": "Area of the DMPO-tBuO signal at 200 s in relative units", "setting": "[2]; DMPO 20 mM + compound 20 mM, (t-BuO)2 20 mM, photolysis at 350 nm, 200 s", "result": 3, "unit": "relative units"}, {"measurement": "Area of the DMPO-tBuO signal at 400 s in relative units", "setting": "[2]; DMPO 20 mM + compound 20 mM, (t-BuO)2 20 mM, photolysis at 350 nm, 400 s", "result": 5.5, "unit": "relative units"}, {"measurement": "DMPO-tBuO EPR signal in the presence of an equimolar quantity of compound", "setting": "[2]; DMPO 20 mM in deoxygenated toluene, equimolar compound", "result": "inhibited"}, {"measurement": "% inhibition of the DMPO-tBuO radical", "setting": "[2]; 200 s", "result": 50, "unit": "%"}, {"measurement": "% inhibition of the DMPO-tBuO radical", "setting": "[2]; 400 s", "result": 40, "unit": "%"}, {"measurement": "inhibition of the level of the DMPO-tBuO signal radical", "setting": "[2]; conclusion of Example 1", "result": "~50", "unit": "%"}, {"measurement": "kinetics of inhibition of the DMPO-tBuO signal", "setting": "[2]; rapid kinetics", "result": "less than 10 minutes"}, {"measurement": "bioavailability", "setting": "[3]", "result": 6, "unit": "%"}, {"measurement": "% of reduction of the oxidation of the cumene", "setting": "[4]; 100 μM", "result": 38, "unit": "%"}, {"measurement": "Area of the signal, in relative units, of the cumene hydroperoxide", "setting": "[4]; 100 μM", "result": 250, "unit": "relative units"}, {"measurement": "% of reduction of the oxidation of the cumene", "setting": "[4]; 200 μM", "result": 57, "unit": "%"}, {"measurement": "Area of the signal, in relative units, of the cumene hydroperoxide", "setting": "[4]; 200 μM", "result": 175, "unit": "relative units"}, {"measurement": "reduction of the oxidation of the cumene by oxygen", "setting": "[4]; conclusion of Example 2", "result": "approximately 40%"}, {"measurement": "activity compared with vitamin E", "setting": "[4]; same concentrations, same conditions", "result": "activity similar to vitamin E"}, {"measurement": "no-observed-effect level (NOEL)", "setting": "[5]", "result": 50, "unit": "mg/kg"}]}
{"molecule": "vitamin E [reference compound]", "values": [{"measurement": "% of reduction of the oxidation of the cumene", "setting": "[4]; 100 μM", "result": 39, "unit": "%"}, {"measurement": "Area of the signal, in relative units, of the cumene hydroperoxide", "setting": "[4]; 100 μM", "result": 245, "unit": "relative units"}]}
